# Reference: US8507536B2, “Gonadotropin-releasing hormone receptor antagonists and methods relating thereto” (Neurocrine Biosciences, Inc., priority 2007, dated 2013)
# Molecular target: T1, human GnRH receptor (Homo sapiens, UniProt P30968)
# T1 construct: expressed in transfected cells; membrane preparations
# T1 sequence (P30968 1-328): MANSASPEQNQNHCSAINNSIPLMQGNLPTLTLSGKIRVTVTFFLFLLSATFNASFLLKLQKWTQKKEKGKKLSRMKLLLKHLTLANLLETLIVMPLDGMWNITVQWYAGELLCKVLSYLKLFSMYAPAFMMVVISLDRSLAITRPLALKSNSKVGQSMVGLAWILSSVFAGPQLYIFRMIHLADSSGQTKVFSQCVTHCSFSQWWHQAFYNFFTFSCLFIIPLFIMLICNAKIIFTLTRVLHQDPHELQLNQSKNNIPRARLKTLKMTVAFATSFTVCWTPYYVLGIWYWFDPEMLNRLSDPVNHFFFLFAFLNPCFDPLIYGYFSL
# Assay: peptide competitive human receptor binding assays (radioligand displacement)
# Details: tested in one or more of the peptide competitive human receptor binding assays
# Procedure: HEK293 cells stably transfected with the human GnRH receptor are grown for two days after achieving confluence then are harvested by striking tissue culture flasks against a firm surface. Cells are collected by centrifugation at 1000 g for […]. Cell pellets are resuspended in 5% sucrose and homogenized using a polytron homogenizer for two 15 second homogenization steps. Cell homogenates are then centrifuged for 5 minutes at 3000 g to remove nuclei and the supernatant subsequently centrifuged for 30 minutes at 44,000 g to collect the membrane fraction. The membrane pellet is resuspended in GnRH binding buffer (10 mM HEPES, pH 7.5, 150 mM NaCl and 0.1% BSA) and aliquots immediately snap-frozen in liquid nitrogen and stored at −80° C. Protein content of the membrane suspension is determined using the Bio-Rad protein assay kit (Bio-Rad).
# RBL cells stably transfected with the human GnRH receptor are grown to 80% confluency prior to harvesting. The cells are incubated at 37° C. for 10 min in 0.5 mM EDTA/PBS (Ca^++, Mg^++ free), and are dislodged from the plate by gentle rapping of the flasks. Cells are collected and pelleted by centrifugation at 1000 g for 5 minutes. Cell pellets are resuspended in buffer (DPBS supplemented with 10 mM MgCl2, 2 mM EGTA, pH=7.4), and cell lysis is performed using a pressure cell and applying N2 at a pressure of 900 psi for 30 min at 4° C. Unbroken cells and larger debris were removed by centrifugation at 1200 g for 10 min at 4° C. The cell membrane supernatant is then centrifuged at 45,000 g and the resulting membrane pellet is resuspended in assay buffer and homogenized on ice using a tissue homogenizer. Protein concentrations are determined using the Coomassie Plus Protein Reagent kit. Membranes are aliquoted and stored at −80° C. until ready for use.
# Radioligand binding displacement assays using the peptide radioligands are performed in buffer containing 10 mM HEPES, 150 mM NaCl and 0.1% BSA, pH=7.5. Radioligand binding assays employing the use of [^3H]-1-(2,6-difluorobenzyl)-3-[(2R)-amino-2-phenethyl]-5-(2-fluoro-3-methoxyphenyl)-6-methyluracil (here the 3-methoxy group is tritiated) are run in buffer containing 50 mM Tris, 150 mM NaCl, 5 mM MgCl2, 0.01% saponin and 0.5 mM EDTA, pH=7.5. Radioligand displacement assays are performed by incubating radioligand ([^125I-Tyr^5, DLeu^6, NMeLeu^7, Pro^9-NEt]GnRH (0.1 nM), [His^5, ^125I-DTyr^6]GnRH (0.2 nM) (31) or [^3H]-1-(2,6-difluorobenzyl)-3-[(2R)-amino-2-phenethyl]-5-(2-fluoro-3-methoxyphenyl)-6-methyluracil (1 nM)), unlabeled competitors at concentrations ranging from 0.3 pM to 10 μM, and membranes for 2 hrs at rt. 10 to 20 μg protein/well is used from membrane preparations for human, monkey and rabbit GnRH receptor. 5 μg/well and 60 μg/well of membranes are used for rat and dog GnRH receptors, respectively. Binding assays are performed in either Millipore 96-well GF/C filtration plates (for ([^125I-Tyr^5, DLeu^6, NMeLeu^7, Pro^9-NEt]GnRH assays), or in 96 well low binding plates, which are subsequently filtered onto GF/C Unifilters. Filters are pretreated with 0.5% PEI for 30 min prior to use. Reactions are terminated by rapid vacuum filtration, and the filters are washed twice with 250 μL ice cold PBS pH=7.4 (0.01% Tween-20 is included in wash media for [His^5, ^125I-DTyr^6]GnRH and [^3H]-1-(2,6-difluorobenzyl)-3-[(2R)-amino-2-phenethyl]-5-(2-fluoro-3-methoxyphenyl)-6-methyluracil radioligands). The filters are dried, and the Millipore filters are monitored for radioactivity using a Cobra II gamma counter (Perkin Elmer Life Sciences). For assays filtered onto the GF/C Unifilter plates, 50 μL scintillation fluid is added to each filter, and radioactivity is monitored using a TopCount NXT. For iodinated radioligands, total radioligand is monitored on a gamma counter, and for the tritiated radioligand, total radioligand is monitored using a Perkin Elmer 1600TR liquid scintillation counter. […]
row,SMILES,Ki
1,"Cc1cc(C(F)(F)F)nc(=O)n1-c1cc(S(=O)(=O)N2CCCCc3ccccc32)ccc1Cl [Example 13-1, 1-[2-chloro-5-(2,3,4,5-tetrahydro-benzo[b]azepine-1-sulfonyl)-phenyl]-6-methyl-4-trifluoromethyl-1H-pyrimidin-2-one]",≤ 100 nM
2,COc1cc(Cl)c(-c2cnc(C(F)(F)F)cc2C#N)cc1S(=O)(=O)N(C)c1cccc(C)c1 [Example 15-9],≤ 100 nM
3,"CN(c1ccccc1)S(=O)(=O)c1cc(-c2cnc(C(F)(F)F)cc2C#N)c(Cl)cc1OCC(=O)O [Example 19-1, [5-chloro-4-(4-cyano-6-trifluoromethyl-pyridin-3-yl)-2-(methyl-phenyl-sulfamoyl)-phenoxy]-acetic acid]",≤ 100 nM
4,N#Cc1cc(C(F)(F)F)ncc1-c1cc(S(=O)(=O)N2CCCCc3ccccc32)ccc1Cl [Example 4-13],≤ 100 nM
5,Cc1cc(Cl)ncc1-c1cc(S(=O)(=O)N2CCCOc3ccccc32)ccc1Cl [Example 4-23],≤ 100 nM
6,Cc1cc(C(F)(F)F)ncc1-c1cc(S(=O)(=O)N2CCCc3ccccc32)ccc1Cl [Example 4-10],≤ 100 nM

# The remaining lines, values ahead:
row,Ki,SMILES
1,≤ 100 nM,"O=S(=O)(c1ccc(Cl)c(-c2cnc(Cl)cc2Cl)c1)N1CCCCc2ccccc21 [Example 5-1, 1-[4-Chloro-3-(4,6-dichloro-pyridin-3-yl)-benzenesulfonyl]-2,3,4,5-tetrahydro-1H-1-benzazepine]"
2,≤ 100 nM,COc1cccc(N(C)S(=O)(=O)c2cc(-c3cnc(C(F)(F)F)cc3C#N)c(Cl)cc2OC)n1 [Example 15-20]
3,≤ 100 nM,COc1cc(Cl)c(-c2cnc(C(F)(F)F)cc2C#N)cc1S(=O)(=O)N1CCCCc2ccccc21 [Example 15-17]
